Assay results as given in US9980943B2, “Methods of treating muscular dystrophy” (BOARD OF REGENTS OF THE NEVADA SYSTEM OF HIGHER EDUCATION, …, priority 2013, dated 2018).

Legend:
Type in all cases: cell-based, mouse
[1] = system: β-galactosidase in CMV-LacZ C2C12 myotubes; experiment: CMV-LacZ secondary screen in C2C12 myotubes (β-Gal stabilizing assay); conditions: C2C12 CMV-LacZ myotubes, fold relative to DMSO
In short: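 β-gal stabilization was measured in C2C12 myoblasts or myotubes stably transfected with a CMV-driven LacZ construct, using the FDG β-gal assay. Compounds were tested in dose-response at 0.5, 1, 5, 10, 20 and 40 μM, with two replicates per point.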

[2] = system: α7 integrin (LacZ reporter in α7+/LacZ myotubes); experiment: Myotube α7 integrin FDG assay (Burkin assay in myotubes, 96-well); conditions: myotubes
[3] = system: α7 integrin (LacZ reporter in α7βgal+/− myoblasts); experiment: Myoblast α7+/LacZ integrin FDG assay (Burkin assay in myoblasts, 96-well); conditions: α7+/LacZ myoblasts, 96-well
[4] = system: β-galactosidase in CMV-LacZ C2C12 myoblasts; experiment: CMV-LacZ secondary screen in C2C12 myoblasts (β-Gal stabilizing assay); conditions: CMV-LacZ C2C12 myoblasts
In short: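 C2C12 myoblasts stably carrying a linearized CMV-driven LacZ construct, clone chosen by β-gal level in the myoblast FDG assay. Compounds tested in 96-well dose-response at 0.5, 1, 5, 10, 20 and 40 μM, N=2 replicates per point, to detect β-gal stabilization.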

Row | SMILES | CMV-LACZ in Myotubes, signal relative to DMSO ([1]; 0.5 uM) | CMV-LACZ in Myotubes, signal relative to DMSO ([1]; 1 uM) | CMV-LACZ in Myotubes, signal relative to DMSO ([1]; 5 uM) | CMV-LACZ in Myotubes, signal relative to DMSO ([1]; 10 uM) | CMV-LACZ in Myotubes, signal relative to DMSO ([1]; 20 uM) | CMV-LACZ in Myotubes, signal relative to DMSO ([1]; 40 uM) | Burkin Assay in Myotubes, α7 integrin LacZ reporter signal relative to DMSO ([2]; 0.5 uM) | Burkin Assay in Myotubes, α7 integrin LacZ reporter signal relative to DMSO ([2]; 1 uM) | Burkin Assay in Myotubes, α7 integrin LacZ reporter signal relative to DMSO ([2]; 5 uM) | Burkin Assay in Myotubes, α7 integrin LacZ reporter signal relative to DMSO ([2]; 10 uM) | Burkin Assay in Myotubes, α7 integrin LacZ reporter signal relative to DMSO ([2]; 20 uM) | Burkin Assay in Myotubes, α7 integrin LacZ reporter signal relative to DMSO ([2]; 40 uM) | Burkin Assay in Myoblasts, signal relative to DMSO ([3]; 0.5 uM) | Burkin Assay in Myoblasts, signal relative to DMSO ([3]; 1 uM) | Burkin Assay in Myoblasts, signal relative to DMSO ([3]; 5 uM) | Burkin Assay in Myoblasts, signal relative to DMSO ([3]; 10 uM) | Burkin Assay in Myoblasts, signal relative to DMSO ([3]; 20 uM) | Burkin Assay in Myoblasts, signal relative to DMSO ([3]; 40 uM) | CMV-LACZ in Myoblasts (β-galactosidase activity relative to DMSO) ([4]; 0.5 uM) | CMV-LACZ in Myoblasts (β-galactosidase activity relative to DMSO) ([4]; 1 uM) | other results
1 | CN(CC(=O)Nc1cccc(F)c1)C(=O)c1ccc(-c2ccc(Cl)cc2)o1 [MLS001078811-01] | 0.8486 | 0.9086 | 1.1571 | 0.9981 | 1.0510 | 0.6710 | 0.9163 | 0.9064 | 0.9816 | 0.8773 | 0.6307 | 0.4598 | 0.9376 | 0.9926 | 0.9583 | 0.891 | 1.681 | 0.7411 | 1.2397 | 1.2290 | CMV-LACZ in Myoblasts (β-galactosidase activity relative to DMSO) ([4]; 5 uM): 0.7927; CMV-LACZ in Myoblasts (β-galactosidase activity relative to DMSO) ([4]; 10 uM): 0.6873; CMV-LACZ in Myoblasts (β-galactosidase activity relative to DMSO) ([4]; 20 uM): 0.8393; CMV-LACZ in Myoblasts (β-galactosidase activity relative to DMSO) ([4]; 40 uM): 0.9014
2 | COc1ccccc1C(=O)Nc1ccnn1C1CCN(C(=O)c2ccoc2)CC1 [MLS001083082-01] | 0.9615 | 1.0326 | 0.9984 | 0.9776 | 1.0282 | 1.1165 | 1.035 | 0.9411 | 1.07 | 1.05 | 0.8987 | 0.937 | 0.9036 | 0.9516 | 1.058 | 1.023 | 1.014 | 0.9468 | 0.8591 | 0.9234 | CMV-LACZ in Myoblasts (β-galactosidase activity relative to DMSO) ([4]; 5 uM): 1.0409; CMV-LACZ in Myoblasts (β-galactosidase activity relative to DMSO) ([4]; 10 uM): 1.1713; CMV-LACZ in Myoblasts (β-galactosidase activity relative to DMSO) ([4]; 20 uM): 0.9615; CMV-LACZ in Myoblasts (β-galactosidase activity relative to DMSO) ([4]; 40 uM): 0.8144
3 | O=C1CCC(C(=O)N2CCSCC2)CN1Cc1ccc(Cl)cc1 (stereo not drawn) [MLS001090787-01] | 1.0009 | 0.9055 | 1.0126 | 1.1178 | 0.8990 | 0.9450 | 1.054 | 1.168 | 1.083 | 1.195 | 1.209 | 1.5544 | 1.142 | 0.9734 | 1.263 | 1.46 | 1.265 | 1.222 | 0.9196 | 0.9754 | CMV-LACZ in Myoblasts (β-galactosidase activity relative to DMSO) ([4]; 5 uM): 0.9700; CMV-LACZ in Myoblasts (β-galactosidase activity relative to DMSO) ([4]; 10 uM): 0.8594; CMV-LACZ in Myoblasts (β-galactosidase activity relative to DMSO) ([4]; 20 uM): 0.7533; CMV-LACZ in Myoblasts (β-galactosidase activity relative to DMSO) ([4]; 40 uM): 0.5907
4 | COC(=O)c1cc(S(=O)(=O)NCC2CCN(Cc3ccc(Cl)cc3)CC2)cn1C [MLS001095033-01] | 1.2895 | 1.0867 | 1.0230 | 1.0031 | 1.0326 | 1.0358 | 0.9959 | 0.9488 | 0.944 | 0.9298 | 0.8938 | 0.9158 | 1.281 | 1.186 | 0.9632 | 0.9614 | 1.125 | 1.0618 | 0.9488 | 0.9179 | CMV-LACZ in Myoblasts (β-galactosidase activity relative to DMSO) ([4]; 5 uM): 0.9043; CMV-LACZ in Myoblasts (β-galactosidase activity relative to DMSO) ([4]; 10 uM): 1.0269; CMV-LACZ in Myoblasts (β-galactosidase activity relative to DMSO) ([4]; 20 uM): 0.9359; CMV-LACZ in Myoblasts (β-galactosidase activity relative to DMSO) ([4]; 40 uM): 0.9811
5 | COc1ccc(OC)c(S(=O)(=O)Nc2c(NC3CCCCC3)c3ccccc3oc2=O)c1 [MLS001095705-01] | 0.9486 | 0.9933 | 1.1898 | 1.3164 | 1.2020 | 1.0800 | 0.9916 | 0.9463 | 1.073 | 0.8798 | 0.9411 | 0.7937 | 0.7873 | 0.8788 | 1.295 | 0.969 | 0.7917 | 0.7284 | 1.2060 | 1.2293 | CMV-LACZ in Myoblasts (β-galactosidase activity relative to DMSO) ([4]; 5 uM): 0.6476; CMV-LACZ in Myoblasts (β-galactosidase activity relative to DMSO) ([4]; 10 uM): 0.7229; CMV-LACZ in Myoblasts (β-galactosidase activity relative to DMSO) ([4]; 20 uM): 1.1400; CMV-LACZ in Myoblasts (β-galactosidase activity relative to DMSO) ([4]; 40 uM): 1.1723
6 | N/C(=N\OC(=O)c1cccc(C(F)(F)F)c1)c1cnccn1 [MLS001098105-01] | 0.9248 | 1.2543 | 0.9211 | 1.3183 | 0.9671 | 1.2553 | 1.052 | 1.053 | 0.916 | 0.8354 | 0.8142 | 0.8459 | 0.9449 | 1.029 | 0.9936 | 0.974 | 1.075 | 1.135 | 1.4689 | 0.8054 | CMV-LACZ in Myoblasts (β-galactosidase activity relative to DMSO) ([4]; 5 uM): 0.9282; CMV-LACZ in Myoblasts (β-galactosidase activity relative to DMSO) ([4]; 10 uM): 0.9421; CMV-LACZ in Myoblasts (β-galactosidase activity relative to DMSO) ([4]; 20 uM): 1.0381; CMV-LACZ in Myoblasts (β-galactosidase activity relative to DMSO) ([4]; 40 uM): 0.8704
